Here are results for 3 compounds from PMC10489980, “Design of Potent and Salt-Insensitive Antimicrobial Branched Peptides” (Polymers, 2023).

The structures appear in SMILES notation. Where two headings read alike, the source gives them in different places. Positions of bridges follow the written chain, without caps; N, C: chain ends. Residues, ends and D or L forms follow the SMILES beside them. Chains are numbered I, II in the order given. *: point of attachment. Fmoc = O=C(OCC1c2ccccc2-c2ccccc21)*

What all share (assay type): cell-based
For test [1], the system named is Candida albicans ATCC 37092. An excerpt:
(§1) Ten organisms obtained from the American Type Culture Collection (ATCC; Rockville, MD) were used for antimicrobial assays. Four Gram-negative bacteria included Escherichia coli ATCC 25922, Pseudomonas aeruginosa ATCC 27853, Klebsiella oxytoca ATCC 49131, and Proteus vulgaris ATCC 49132. The three Gram-positive bacteria were Staphylococcus aureus 29213, Micrococcus luteus ATCC 49,732, and Enterococcus faecalis ATCC 29212. The three fungi were Candida albicans ATCC 37092, Candida kefyr ATCC 37095, and Candida tropicalis ATCC 37097. The clinical isolates were obtained from Singapore General Hospital (SGH). They are Enterococcus faecium, Staphylococcus aureus, Klebsiella pneumoniae, Acinetobacter baumannii, Pseudomonas aeruginosa, and Enterobacter species. The strains were incubated in trypticase soy broth (TSB), which was prepared in double distilled water and autoclaved for sterilization. TSB was purchased from Becton-Dickinson (Cockeysville, MD, USA).
(§2) Antimicrobial Assays. A sensitive and reproducible two-stage radial diffusion antimicrobial assay of Lehrer et al. was employed. A 1–4 × 10^6 colony-forming unit/mL of the test organism was mixed with 10 mL of molten underlay gel solution and poured into Petri dishes to form a uniform layer. The gel solution consisted of 10 mM sodium phosphate buffer, 0.03% TSB, and 0.02% Tween-20, with the addition of 100 mM NaCl in the case of high-salt conditions. Upon gel solidification, gel wells were made by a 3-mm diameter template in an evenly spaced array. A 5 µL aliquot of a serial half-log dilution of test peptides at seven concentrations was added to each well after removal of gel plugs. The dishes were incubated at 37 °C for 3 h to allow peptide diffusion into the underlay gels. Gels were overlaid with 10 mL of 1% agarose in 6% TSB (wt/vol). After additional incubation at 37 °C for 16–24 h, the diameter of the clear zone surrounding the wells (colony-free) was measured under a microscope. Antimicrobial activities were expressed in units (0.1 mm = 1 unit), and the MICs (in µM) were determined from the x-intercepts of the dose-response curves. Experiments were performed in triplicates.

Test [2] concerns Enterococcus faecalis ATCC 29212.
Text: as §1, §2

Test [3] has as its system Micrococcus luteus ATCC 49,732.
Text: as §1, §2

Test [4] relates to Candida tropicalis ATCC 37097.
Text: as §1, §2

In test [5] the test system is Pseudomonas aeruginosa ATCC 27853.
Text: as §1, §2

Test [6] concerns Proteus vulgaris ATCC 49132.
Text: as §1, §2

In test [7] the test system is Escherichia coli ATCC 25922.
Text: as §1, §2

For another test, the system named is Candida kefyr ATCC 37095.
Text: as §1, §2

Test [8] concerns Staphylococcus aureus 29213.
Text: as §1, §2

The test system of test [9] is Klebsiella oxytoca ATCC 49131.
Text: as §1, §2

For the compound `CC(C)C[C@H](NC(=O)[C@@H](N)CCCNC(=N)N)C(=O)N[C@@H](Cc1ccc(O)cc1)C(=O)N[C@@H](CCCNC(=N)N)C(=O)N[C@@H](CCCCNC(=O)[C@H](CCCCNC(=O)[C@H](CCCCNC(=O)OCC1c2ccccc2-c2ccccc21)NC(=O)[C@H](CCCNC(=N)N)NC(=O)[C@H](Cc1ccc(O)cc1)NC(=O)[C@H](CC(C)C)NC(=O)[C@@H](N)CCCNC(=N)N)NC(=O)[C@H](CCCNC(=N)N)NC(=O)[C@H](Cc1ccc(O)cc1)NC(=O)[C@H](CC(C)C)NC(=O)[C@@H](N)CCCNC(=N)N)C(N)=O` [iK3R] (I: H-RLYRK-NH2 / II: H-RLYRK(Fmoc) / III: H-RLYRK; amide I:5-III:C, II:C-III:5), in [1] (ATCC 37092, 3 h), the “MIC, C. albicans, H-Salt” value is given as 0.8 µM and the “MIC, C. albicans, L-Salt” value is recorded as 0.7 µM. In test [2] (ATCC 29212, 3 h), the “MIC, E. faecalis, H-Salt” value is 0.8 µM and the “MIC, E. faecalis, L-Salt” value amounted to 0.5 µM. Moreover, in test [3] (ATCC 49, 3 h), the “MIC, M. luteus, H-Salt” value is 0.7 µM and the “MIC, M. luteus, L-Salt” value worked out at 0.6 µM. Besides, in [4] (ATCC 37097, 3 h), the “MIC, C. tropicalis, H-Salt” value was determined as 1.2 µM and the “MIC, C. tropicalis, L-Salt” value worked out at 0.8 µM. Further, in test [5] (ATCC 27853, 3 h), the “MIC, P. aeruginosa, H-Salt” value came to 0.8 µM and the “MIC, P. aeruginosa, L-Salt” value came out at 0.7 µM. Besides, in test [6] (ATCC 49132, 3 h), the “MIC, P. vulgaris, H-Salt” value is 0.5 µM and the “MIC, P. vulgaris, L-Salt” value is reported as 0.7 µM. In test [7] (ATCC 25922, 3 h), the “MIC, E. coli, H-Salt” value is given as 0.4 µM and the “MIC, E. coli, L-Salt” value came out at 0.6 µM. In the test with Candida kefyr ATCC 37095 (ATCC 37095, 3 h), the “MIC, C. kefyr, H-Salt” value was 0.7 µM and the “MIC, C. kefyr, L-Salt” value was determined as 0.8 µM. Also, in [8] (29213, 3 h), the “MIC, S. aureus, H-Salt” value stood at 0.7 µM and the “MIC, S. aureus, L-Salt” value was determined as 0.5 µM. In [9] (ATCC 49131, 3 h), the “MIC, K. oxytoca, H-Salt” value worked out at 0.7 µM and the “MIC, K. oxytoca, L-Salt” value turned out to be 0.7 µM.

As for `CC(=O)NCCCC[C@H](NC(=O)[C@H](CCCNC(=N)N)NC(=O)[C@H](Cc1ccc(O)cc1)NC(=O)[C@H](CC(C)C)NC(=O)[C@@H](N)CCCNC(=N)N)C(=O)NCCCC[C@H](NC(=O)[C@H](CCCNC(=N)N)NC(=O)[C@H](Cc1ccc(O)cc1)NC(=O)[C@H](CC(C)C)NC(=O)[C@@H](N)CCCNC(=N)N)C(=O)NCCCC[C@H](NC(=O)[C@H](CCCNC(=N)N)NC(=O)[C@H](Cc1ccc(O)cc1)NC(=O)[C@H](CC(C)C)NC(=O)[C@@H](N)CCCNC(=N)N)C(=O)NCCCC[C@H](NC(=O)[C@H](CCCNC(=N)N)NC(=O)[C@H](Cc1ccc(O)cc1)NC(=O)[C@H](CC(C)C)NC(=O)[C@@H](N)CCCNC(=N)N)C(N)=O` [iK4R] (HELM PEPTIDE1{R.L.Y.R.K}|PEPTIDE2{[ac]}|PEPTIDE3{R.L.Y.R.K}|PEPTIDE4{R.L.Y.R.K}|PEPTIDE5{R.L.Y.R.K.[am]}$PEPTIDE1,PEPTIDE2,5:R3-1:R2|PEPTIDE1,PEPTIDE3,5:R2-5:R3|PEPTIDE3,PEPTIDE4,5:R2-5:R3|PEPTIDE4,PEPTIDE5,5:R2-5:R3$$$V2.0), the “MIC, C. albicans, H-Salt” value in [1] (ATCC 37092, radial diffusion assay, high-salt (100 mM NaCl), triplicates) is listed as 0.9 µM. Further, in test [1] (ATCC 37092, radial diffusion assay, low-salt (without NaCl), triplicates), the “MIC, C. albicans, L-Salt” value is recorded as 0.8 µM. Besides, the “MIC, E. faecalis, H-Salt” value in test [2] (ATCC 29212, radial diffusion assay, high-salt (100 mM NaCl), triplicates) was found to be 1.4 µM. Also, the “MIC, E. faecalis, L-Salt” value in test [2] (ATCC 29212, radial diffusion assay, low-salt (without NaCl), triplicates) came to 0.8 µM. For the same compound, in [3] (ATCC 49,732, radial diffusion assay, high-salt (100 mM NaCl), triplicates), the “MIC, M. luteus, H-Salt” value is 0.8 µM. Besides, the “MIC, M. luteus, L-Salt” value in test [3] (ATCC 49,732, radial diffusion assay, low-salt (without NaCl), triplicates) amounted to 0.9 µM. Also, the “MIC, C. tropicalis, H-Salt” value in test [4] (ATCC 37097, radial diffusion assay, high-salt (100 mM NaCl), triplicates) came out at 1.3 µM. Moreover, the “MIC, C. tropicalis, L-Salt” value in test [4] (ATCC 37097, radial diffusion assay, low-salt (without NaCl), triplicates) is reported as 0.5 µM. In addition, the “MIC, P. aeruginosa, H-Salt” value in test [5] (ATCC 27853, radial diffusion assay, high-salt (100 mM NaCl), triplicates) was 0.7 µM. Moreover, in [5] (ATCC 27853, radial diffusion assay, low-salt (without NaCl), triplicates), the “MIC, P. aeruginosa, L-Salt” value was determined as 0.5 µM. For the same compound, the “MIC, P. vulgaris, H-Salt” value in [6] (ATCC 49132, radial diffusion assay, high-salt (100 mM NaCl), triplicates) was 0.7 µM. The “MIC, P. vulgaris, L-Salt” value in test [6] (ATCC 49132, radial diffusion assay, low-salt (without NaCl), triplicates) is given as 0.8 µM. Moreover, the “MIC, E. coli, H-Salt” value in [7] (ATCC 25922, two-stage radial diffusion assay, high-salt (underlay gel 10 mM sodium phosphate, 0.03% TSB, 0.02% Tween-20, with 100 mM NaCl), 37 °C, x-intercept of dose-response curve, triplicates) turned out to be 0.4 µM. Further, the “MIC, E. coli, L-Salt” value in test [7] (ATCC 25922, two-stage radial diffusion assay, low-salt (underlay gel 10 mM sodium phosphate, 0.03% TSB, 0.02% Tween-20, without NaCl), 37 °C, x-intercept of dose-response curve, triplicates) came to 0.4 µM. Besides, the “MIC, C. kefyr, H-Salt” value in the test with Candida kefyr ATCC 37095 (ATCC 37095, radial diffusion assay, high-salt (100 mM NaCl), triplicates) is listed as 0.8 µM. Besides, the “MIC, C. kefyr, L-Salt” value in the test on Candida kefyr ATCC 37095 (ATCC 37095, radial diffusion assay, low-salt (without NaCl), triplicates) is listed as 0.8 µM. Moreover, the “MIC, S. aureus, H-Salt” value in test [8] (strain 29213, radial diffusion assay, high-salt (100 mM NaCl), triplicates) came to 0.6 µM. In addition, the “MIC, S. aureus, L-Salt” value in test [8] (strain 29213, radial diffusion assay, low-salt (without NaCl), triplicates) worked out at 0.7 µM. The “MIC, K. oxytoca, H-Salt” value in test [9] (ATCC 49131, radial diffusion assay, high-salt (100 mM NaCl), triplicates) worked out at 0.7 µM. Moreover, the “MIC, K. oxytoca, L-Salt” value in test [9] (ATCC 49131, radial diffusion assay, low-salt (without NaCl), triplicates) worked out at 0.5 µM.

Consider `CC(C)C[C@H](NC(=O)[C@@H](N)CCCNC(=N)N)C(=O)N[C@@H](Cc1ccc(O)cc1)C(=O)N[C@@H](CCCNC(=N)N)C(=O)NCCCC[C@H](NC(=O)[C@H](CCCNC(=N)N)NC(=O)[C@H](Cc1ccc(O)cc1)NC(=O)[C@H](CC(C)C)NC(=O)[C@@H](N)CCCNC(=N)N)C(=O)NCCCC[C@H](NC(=O)[C@H](CCCNC(=N)N)NC(=O)[C@H](Cc1ccc(O)cc1)NC(=O)[C@H](CC(C)C)NC(=O)[C@@H](N)CCCNC(=N)N)C(=O)NCCCC[C@H](NC(=O)[C@H](CCCNC(=N)N)NC(=O)[C@H](Cc1ccc(O)cc1)NC(=O)[C@H](CC(C)C)NC(=O)[C@@H](N)CCCNC(=N)N)C(=O)NCCCC[C@H](NC(=O)[C@H](CCCNC(=N)N)NC(=O)[C@H](Cc1ccc(O)cc1)NC(=O)[C@H](CC(C)C)NC(=O)[C@@H](N)CCCNC(=N)N)C(N)=O` [iK5R] (HELM PEPTIDE1{R.L.Y.R.K}|PEPTIDE2{R.L.Y.R}|PEPTIDE3{R.L.Y.R.K}|PEPTIDE4{R.L.Y.R.K}|PEPTIDE5{R.L.Y.R.K.[am]}$PEPTIDE1,PEPTIDE2,5:R3-4:R2|PEPTIDE1,PEPTIDE3,5:R2-5:R3|PEPTIDE3,PEPTIDE4,5:R2-5:R3|PEPTIDE4,PEPTIDE5,5:R2-5:R3$$$V2.0; N-terminus assumed), for which, in test [1] (ATCC 37092, 3 h), the “MIC, C. albicans, H-Salt” value was 0.8 µM and the “MIC, C. albicans, L-Salt” value was found to be 0.8 µM. Also, in [2] (ATCC 29212, 3 h), the “MIC, E. faecalis, H-Salt” value is given as 1.6 µM and the “MIC, E. faecalis, L-Salt” value is given as 0.8 µM. Further, in test [3] (ATCC 49, 3 h), the “MIC, M. luteus, H-Salt” value is on record as 0.6 µM and the “MIC, M. luteus, L-Salt” value stood at 1.0 µM. In addition, in [4] (ATCC 37097, 3 h), the “MIC, C. tropicalis, H-Salt” value came out at 0.9 µM and the “MIC, C. tropicalis, L-Salt” value came to 1.2 µM. Further, in test [5] (ATCC 27853, 3 h), the “MIC, P. aeruginosa, H-Salt” value came out at 0.8 µM and the “MIC, P. aeruginosa, L-Salt” value amounted to 0.6 µM. In [6] (ATCC 49132, 3 h), the “MIC, P. vulgaris, H-Salt” value worked out at 0.7 µM and the “MIC, P. vulgaris, L-Salt” value came out at 0.6 µM. Also, in [7] (ATCC 25922, 3 h), the “MIC, E. coli, H-Salt” value is on record as 0.5 µM and the “MIC, E. coli, L-Salt” value is listed as 0.5 µM. Besides, in the test on Candida kefyr ATCC 37095 (ATCC 37095, 3 h), the “MIC, C. kefyr, H-Salt” value was 0.7 µM and the “MIC, C. kefyr, L-Salt” value is recorded as 0.6 µM. In [8] (29213, 3 h), the “MIC, S. aureus, H-Salt” value worked out at 0.7 µM and the “MIC, S. aureus, L-Salt” value stood at 0.8 µM. For the same compound, in test [9] (ATCC 49131, 3 h), the “MIC, K. oxytoca, H-Salt” value stood at 1.3 µM and the “MIC, K. oxytoca, L-Salt” value was 0.5 µM.
